The values below come from ChEMBL document CHEMBL1150595, “Isolation and structure elucidation of radical scavengers from Thymus vulgaris leaves” (J Nat Prod, 2002).

Molecules are shown by their SMILES. Calls of active or inactive are those of the source. No cut-off for these calls is given here.

Data set [1] has as its system Radical scavenging activity. In words: Antioxidant activity assessed as DPPH radical scavenging activity at drug-DPPH molar ratio of 1:2 after 15 mins. The class given is functional.
The subject of data set [2] is Radical scavenging activity. Nature of the data set: Antioxidant activity assessed as DPPH radical scavenging activity after 1 min. The class given is functional.
A short description of data set [3]: ABTS radical scavenging activity assessed as Trolox equivalent antioxidant capacity after 1 min. The class given is physicochemical.
Data set [4] in a line: ABTS radical scavenging activity assessed as Trolox equivalent antioxidant capacity after 6 mins. The class given is physicochemical. To be noted: 0.1 h.
For data set [5], the system named is Radical scavenging activity. Nature of the data set: Antioxidant activity assessed as DPPH radical scavenging activity after 3 mins. The class given is functional.

Consider `O=C(/C=C/c1ccc(O)c(O)c1)O[C@H](Cc1ccc(O)c(O)c1)C(=O)O` [ROSMARINIC ACID], for which the inhibition in data set [1] was determined as 95%; in data set [2], 43%. Moreover, the Ratio in data set [3] is recorded as 1.5; in data set [4], 1.54.
Turning to `O=C(/C=C/c1ccc(O)c(O/C(=C\c2ccc(O)c(O)c2)C(=O)O)c1)O[C@H](Cc1ccc(O)c(O)c1)C(=O)O`, the figures for the inhibition in data set [1] and in data set [2] were 96% and 70%, respectively. For the same compound, the result in data set [5] was Active. Besides, the Ratio came to 0.58 in data set [3] and 0.69 in data set [4].
